Results on three compounds are retold here after publication PMC10649086 (Antimicrobial Agents and Chemotherapy, 2023).

Like-named read-outs stand apart in the source and are kept apart here.

The test system of experiment [1] is SARS-CoV-2. As to conditions: human, in vivo; cited from earlier work.
Experiment [2] deals with SARS-CoV-2 BA.4.1 Omicron. Briefly: microbe, parasite or virus in culture. The class given is cell-based.
A further experiment deals with SARS-CoV-2 Alpha. Briefly: microbe, parasite or virus in culture. It is filed as cell-based.
A further experiment addresses cathepsin S (Homo sapiens, UniProt P25774). Briefly: biochemical.
A further experiment has as its target calpain1 (Homo sapiens, UniProt P07384). It is filed as biochemical.
The next experiment deals with SARS-CoV-2 Epsilon. Nature of the experiment: microbe, parasite or virus in culture. It is filed as cell-based.
Another experiment has as its target T1, CoV-229E M^pro (Human coronavirus 229E, UniProt P0C6X1).
T1 construct: M^pro proteins from other human CoVs were also cloned, expressed in E. coli and purified by WuXi AppTec; host or cells: E. coli
Nature of the experiment: biochemical.

The target of the next experiment is T2, CoV-HKU1 M^pro (Human coronavirus HKU1, UniProt P0C6X2).
T2 construct: M^pro proteins from other human CoVs were also cloned, expressed in E. coli and purified by WuXi AppTec; host or cells: E. coli
T2 sequence (P0C6X2 3335-3637 limits assumed): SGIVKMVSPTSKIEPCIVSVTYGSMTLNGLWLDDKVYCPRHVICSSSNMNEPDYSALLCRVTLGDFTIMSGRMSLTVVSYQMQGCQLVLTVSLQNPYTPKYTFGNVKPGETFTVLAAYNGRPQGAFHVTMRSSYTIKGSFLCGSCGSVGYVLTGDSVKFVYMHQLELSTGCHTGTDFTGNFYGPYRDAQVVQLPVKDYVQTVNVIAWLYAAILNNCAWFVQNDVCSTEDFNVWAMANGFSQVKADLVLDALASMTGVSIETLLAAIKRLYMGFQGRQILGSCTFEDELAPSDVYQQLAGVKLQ
Nature of the experiment: biochemical.

For experiment [3], the system named is SARS-CoV-2 BA.1.1 Omicron. Nature of the experiment: microbe, parasite or virus in culture. The class given is cell-based.
A further experiment concerns the target chymotrypsin C (Homo sapiens, UniProt Q99895). It is filed as biochemical.
Another experiment concerns the target T3, CoV-OC43 M^pro (Human coronavirus OC43, UniProt P0C6X6).
T3 construct: M^pro proteins from other human CoVs were also cloned, expressed in E. coli and purified by WuXi AppTec; host or cells: E. coli
Briefly: biochemical.

A further experiment deals with T4, CoV-NL63 M^pro (Human coronavirus NL63, UniProt P0C6X5).
T4 construct: M^pro proteins from other human CoVs were also cloned, expressed in E. coli and purified by WuXi AppTec; host or cells: E. coli
T4 sequence (P0C6X5 2940-3242 limits assumed): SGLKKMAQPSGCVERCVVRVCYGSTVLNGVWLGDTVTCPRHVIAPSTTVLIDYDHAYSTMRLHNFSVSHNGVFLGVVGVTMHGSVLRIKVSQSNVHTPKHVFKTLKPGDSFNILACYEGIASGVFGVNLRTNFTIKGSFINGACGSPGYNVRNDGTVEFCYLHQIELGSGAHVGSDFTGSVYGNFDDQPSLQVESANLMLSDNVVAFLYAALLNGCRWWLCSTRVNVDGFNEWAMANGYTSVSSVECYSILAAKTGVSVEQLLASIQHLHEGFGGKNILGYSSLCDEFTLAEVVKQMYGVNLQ
Briefly: biochemical.

The test system of experiment [4] is SARS-CoV-2 BA.5.2.1 Omicron. Nature of the experiment: microbe, parasite or virus in culture. The class given is cell-based.
Experiment [5] concerns SARS-CoV-2 Wuhan replicon (WT). Briefly: microbe, parasite or virus in culture. The class given is cell-based.
A further experiment deals with SARS-CoV-2 AY.20 Delta. Briefly: microbe, parasite or virus in culture. It is filed as cell-based.
For another experiment, the system named is SARS-CoV-2 Delta. Nature of the experiment: microbe, parasite or virus in culture. The class given is cell-based.
A further experiment concerns CoV-OC43. Briefly: organism not typed. It is filed as cell-based.
For the next experiment, the system named is SARS-CoV-2 WA1 NLuc. Briefly: microbe, parasite or virus in culture. It is filed as cell-based.
In another experiment the target is T5, SARS-CoV-2 M^pro (Severe acute respiratory syndrome coronavirus 2, UniProt P0DTC1).
T5 construct: composed of about 300 amino acids embedded in the polyproteins as the nsp5 domain; purchased BPS Biosciences
It is filed as biochemical.

The next experiment relates to SARS-CoV-2 Mu. Nature of the experiment: microbe, parasite or virus in culture. It is filed as cell-based.
The target in a further experiment is caspase 3 (Homo sapiens, UniProt P42574). The class given is biochemical.
Chain of caspase 3 (P42574 29-175): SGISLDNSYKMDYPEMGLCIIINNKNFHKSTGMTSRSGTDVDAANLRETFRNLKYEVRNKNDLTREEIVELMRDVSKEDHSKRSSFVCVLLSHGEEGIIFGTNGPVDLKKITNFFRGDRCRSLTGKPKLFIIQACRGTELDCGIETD
Chain of caspase 3 (P42574 176-277): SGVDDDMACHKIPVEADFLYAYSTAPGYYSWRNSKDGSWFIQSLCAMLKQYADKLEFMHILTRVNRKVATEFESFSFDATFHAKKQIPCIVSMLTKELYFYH
The test system of experiment [6] is SARS-CoV-2 BA.2.12.1 Omicron. Briefly: microbe, parasite or virus in culture. The class given is cell-based.
A further experiment has as its target cathepsin L (Homo sapiens, UniProt P07711). Briefly: biochemical.
The target in a further experiment is cathepsin D (Homo sapiens, UniProt P07339). The class given is biochemical.
Chain of cathepsin D (P07339 65-412): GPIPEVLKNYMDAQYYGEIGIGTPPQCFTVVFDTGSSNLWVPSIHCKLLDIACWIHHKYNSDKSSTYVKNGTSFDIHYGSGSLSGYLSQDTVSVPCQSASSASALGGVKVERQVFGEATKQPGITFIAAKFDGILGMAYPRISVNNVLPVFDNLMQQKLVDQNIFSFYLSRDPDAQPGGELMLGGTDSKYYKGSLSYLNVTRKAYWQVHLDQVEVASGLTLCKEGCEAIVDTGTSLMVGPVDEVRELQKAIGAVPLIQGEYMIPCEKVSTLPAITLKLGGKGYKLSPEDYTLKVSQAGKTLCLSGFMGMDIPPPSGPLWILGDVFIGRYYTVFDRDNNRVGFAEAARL
A further experiment has as its system elastase. The class given is biochemical, human.
Another experiment concerns the target caspase-2 (Homo sapiens, UniProt P42575). The class given is biochemical.
For the next experiment, the system named is CoV-229E. Nature of the experiment: organism not typed. The class given is cell-based.
For a further experiment, the target named is dipeptidyl peptidase IV (Homo sapiens, UniProt P27487). It is filed as biochemical.
Chain of dipeptidyl peptidase IV (P27487 whole entry): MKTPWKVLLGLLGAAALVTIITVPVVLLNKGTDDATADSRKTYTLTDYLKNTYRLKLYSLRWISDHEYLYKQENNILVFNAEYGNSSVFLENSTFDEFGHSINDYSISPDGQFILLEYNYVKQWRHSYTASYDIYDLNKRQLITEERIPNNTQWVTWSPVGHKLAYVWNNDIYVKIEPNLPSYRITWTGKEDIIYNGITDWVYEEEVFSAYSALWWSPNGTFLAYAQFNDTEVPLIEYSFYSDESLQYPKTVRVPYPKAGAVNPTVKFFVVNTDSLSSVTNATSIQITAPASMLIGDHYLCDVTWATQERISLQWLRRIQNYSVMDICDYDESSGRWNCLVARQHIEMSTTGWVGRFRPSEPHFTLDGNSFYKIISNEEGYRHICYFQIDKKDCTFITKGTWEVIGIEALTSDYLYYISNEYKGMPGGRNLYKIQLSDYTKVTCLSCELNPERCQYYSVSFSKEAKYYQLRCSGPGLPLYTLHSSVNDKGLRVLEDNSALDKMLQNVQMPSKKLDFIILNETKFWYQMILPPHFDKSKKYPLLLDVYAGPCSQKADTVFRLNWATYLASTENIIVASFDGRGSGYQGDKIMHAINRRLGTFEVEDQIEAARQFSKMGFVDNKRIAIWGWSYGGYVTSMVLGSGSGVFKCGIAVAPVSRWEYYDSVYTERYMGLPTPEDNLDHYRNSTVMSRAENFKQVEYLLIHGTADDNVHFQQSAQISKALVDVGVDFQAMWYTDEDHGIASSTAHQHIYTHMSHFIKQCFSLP
The target of another experiment is cathepsin K (Homo sapiens, UniProt P43235). Nature of the experiment: biochemical.
Chain of cathepsin K (P43235 115-329): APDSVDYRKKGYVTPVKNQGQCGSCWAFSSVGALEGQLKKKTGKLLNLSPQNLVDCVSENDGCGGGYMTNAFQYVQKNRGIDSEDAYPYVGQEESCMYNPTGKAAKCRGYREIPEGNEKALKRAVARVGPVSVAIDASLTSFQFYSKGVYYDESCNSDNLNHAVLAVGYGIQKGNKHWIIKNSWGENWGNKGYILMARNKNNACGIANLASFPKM
The target of the next experiment is thrombin (Homo sapiens, UniProt P00734). It is filed as biochemical.
For a further experiment, the target named is cathepsin B (Homo sapiens, UniProt P07858). Briefly: biochemical.
Another experiment relates to SARS-CoV-2 BA.2 Omicron. Briefly: microbe, parasite or virus in culture. The class given is cell-based.
Experiment [7] deals with SARS-CoV-2. The conditions noted are these: in vivo; cited from earlier work.
The target of a further experiment is T6, SARS-CoV2 WT M^pro (Severe acute respiratory syndrome coronavirus 2, UniProt P0DTC1).
T6 construct: codon-optimized cDNA of SARS-CoV-2 M^pro (QIZ13716.1_ORF1a) was cloned into the pET28a vector; host or cells: E. coli
The class given is biochemical, SARS-CoV-2.

Where [8] appears, read: Severe acute respiratory syndrome coronavirus 2, read-out: EC50 Mean (SD).
The mark [9] stands for this setting: Severe acute respiratory syndrome coronavirus 2, read-out: EC90 Mean (SD).

Chain of calpain1 (P07384 whole entry): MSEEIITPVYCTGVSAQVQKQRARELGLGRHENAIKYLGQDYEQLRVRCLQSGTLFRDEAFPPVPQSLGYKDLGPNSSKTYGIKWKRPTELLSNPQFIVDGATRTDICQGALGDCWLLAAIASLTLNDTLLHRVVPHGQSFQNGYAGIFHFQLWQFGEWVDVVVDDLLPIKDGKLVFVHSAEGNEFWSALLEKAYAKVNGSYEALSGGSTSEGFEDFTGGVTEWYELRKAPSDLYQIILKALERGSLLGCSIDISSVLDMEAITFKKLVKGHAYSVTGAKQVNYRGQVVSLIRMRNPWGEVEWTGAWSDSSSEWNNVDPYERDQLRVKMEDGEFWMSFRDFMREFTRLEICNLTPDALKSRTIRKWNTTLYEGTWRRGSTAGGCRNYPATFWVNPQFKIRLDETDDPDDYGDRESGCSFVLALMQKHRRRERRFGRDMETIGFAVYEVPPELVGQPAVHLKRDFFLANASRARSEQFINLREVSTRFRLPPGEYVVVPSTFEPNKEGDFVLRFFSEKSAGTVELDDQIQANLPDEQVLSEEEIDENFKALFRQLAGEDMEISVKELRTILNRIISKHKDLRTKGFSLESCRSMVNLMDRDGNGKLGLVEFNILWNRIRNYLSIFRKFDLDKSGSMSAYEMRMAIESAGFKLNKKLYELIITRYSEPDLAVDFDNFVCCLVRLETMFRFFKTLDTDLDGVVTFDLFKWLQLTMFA
Chain of calpain1 (P04632 whole entry, further chain): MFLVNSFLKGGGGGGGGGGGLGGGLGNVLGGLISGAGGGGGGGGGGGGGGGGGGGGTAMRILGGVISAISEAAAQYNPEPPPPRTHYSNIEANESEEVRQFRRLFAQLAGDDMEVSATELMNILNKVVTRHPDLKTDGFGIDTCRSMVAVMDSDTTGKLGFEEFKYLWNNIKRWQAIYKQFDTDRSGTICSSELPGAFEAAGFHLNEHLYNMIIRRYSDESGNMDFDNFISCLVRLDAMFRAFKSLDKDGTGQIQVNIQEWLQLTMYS
Chain of caspase-2 (P42575 170-325): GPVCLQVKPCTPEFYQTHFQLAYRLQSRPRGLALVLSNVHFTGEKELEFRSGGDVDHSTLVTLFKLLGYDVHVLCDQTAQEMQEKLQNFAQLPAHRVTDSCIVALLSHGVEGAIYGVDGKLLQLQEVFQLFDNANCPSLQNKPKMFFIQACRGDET
Chain of caspase-2 (P42575 348-452): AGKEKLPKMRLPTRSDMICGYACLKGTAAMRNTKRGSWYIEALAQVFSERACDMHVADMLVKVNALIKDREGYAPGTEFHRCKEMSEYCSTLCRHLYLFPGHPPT
Chain of chymotrypsin C (Q99895 30-268): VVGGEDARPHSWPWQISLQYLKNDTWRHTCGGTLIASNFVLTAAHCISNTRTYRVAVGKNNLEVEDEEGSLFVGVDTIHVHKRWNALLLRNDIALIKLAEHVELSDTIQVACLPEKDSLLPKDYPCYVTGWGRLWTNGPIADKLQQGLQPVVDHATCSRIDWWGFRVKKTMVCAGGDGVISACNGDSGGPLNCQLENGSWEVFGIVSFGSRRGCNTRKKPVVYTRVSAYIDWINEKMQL
Chain of cathepsin L (P07711 114-333): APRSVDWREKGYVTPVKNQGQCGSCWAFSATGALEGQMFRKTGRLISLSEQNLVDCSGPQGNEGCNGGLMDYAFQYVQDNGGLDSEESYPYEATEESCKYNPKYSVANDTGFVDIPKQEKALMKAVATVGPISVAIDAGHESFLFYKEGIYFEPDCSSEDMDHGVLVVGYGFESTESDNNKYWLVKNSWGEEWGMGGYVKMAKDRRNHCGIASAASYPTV
Chain of cathepsin S (P25774 115-331): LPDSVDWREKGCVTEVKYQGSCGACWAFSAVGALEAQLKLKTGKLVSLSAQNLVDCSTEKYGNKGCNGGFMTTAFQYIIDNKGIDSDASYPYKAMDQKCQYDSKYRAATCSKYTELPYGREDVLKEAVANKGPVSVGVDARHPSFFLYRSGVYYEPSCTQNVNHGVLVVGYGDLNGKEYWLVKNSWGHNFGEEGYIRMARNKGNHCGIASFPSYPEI
T3 sequence (P0C6X6 3247-3549 limits assumed): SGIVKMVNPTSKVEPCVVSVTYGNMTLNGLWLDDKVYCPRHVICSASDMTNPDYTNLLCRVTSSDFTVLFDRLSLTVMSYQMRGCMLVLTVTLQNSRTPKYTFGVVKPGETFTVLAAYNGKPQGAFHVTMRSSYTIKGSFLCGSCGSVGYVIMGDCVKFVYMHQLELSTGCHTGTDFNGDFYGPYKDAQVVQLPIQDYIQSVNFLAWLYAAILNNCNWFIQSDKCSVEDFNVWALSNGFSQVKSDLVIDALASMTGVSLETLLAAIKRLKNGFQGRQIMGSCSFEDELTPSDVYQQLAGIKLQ
T1 sequence (P0C6X1 2966-3267 limits assumed): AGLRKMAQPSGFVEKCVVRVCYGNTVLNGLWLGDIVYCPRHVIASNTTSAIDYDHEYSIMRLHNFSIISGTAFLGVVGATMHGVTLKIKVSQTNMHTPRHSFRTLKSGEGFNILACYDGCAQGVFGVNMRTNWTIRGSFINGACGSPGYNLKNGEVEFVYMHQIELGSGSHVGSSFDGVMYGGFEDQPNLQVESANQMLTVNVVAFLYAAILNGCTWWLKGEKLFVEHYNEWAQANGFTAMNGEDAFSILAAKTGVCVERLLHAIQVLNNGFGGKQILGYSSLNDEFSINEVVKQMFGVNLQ

As to `N#C[C@H](C[C@@H]1CCCNC1=O)NC(=O)[C@H](CC1CC1)NC(=O)c1cc2cccc(Cl)c2[nH]1` [pomotrelvir], in the experiment with SARS-CoV-2 [1], the “primary endpoint: proportion of patients below the limit of detection by infectious virus assay on day 3 of treatment” value is “did not meet the primary endpoint”. Also, the EC50 in experiment [2] (setting [8]) was determined as 244 nM; in the experiment on SARS-CoV-2 Alpha (setting [8]), 95 nM; in the experiment with SARS-CoV-2 Epsilon (setting [8]) it was 195 nM; in experiment [3] (setting [8]), 94 nM; in experiment [4] (setting [8]) it was 256 nM; in experiment [5] (Severe acute respiratory syndrome coronavirus 2, Huh-7, read-out: EC50 Mean (SD)) it was 31 nM. Besides, the EC50 came out at 27 nM in experiment [5] (read-out: Mean EC50 (SD)); 374 nM in the experiment with SARS-CoV-2 AY.20 Delta (setting [8]); 251 nM with SARS-CoV-2 Delta (setting [8]); 380 nM in the experiment on CoV-OC43 (Huh-7, read-out: Mean EC50 (SD)); 23 nM in the experiment on SARS-CoV-2 WA1 NLuc (read-out: Mean EC50 (SD)); 73 nM in the experiment on SARS-CoV-2 Mu (setting [8]). The values for the EC50 (in experiment [6] (setting [8]); in the experiment on CoV-229E (read-out: Mean EC50 (SD)); in the experiment on SARS-CoV-2 BA.2 Omicron (read-out: EC50 Mean (SD))) were 60 nM, 180 nM and 139 nM, respectively. The EC90 was 1120 nM in [2] (setting [9]); 144 nM in the experiment on SARS-CoV-2 Alpha (setting [9]); 777 nM with SARS-CoV-2 Epsilon (setting [9]); 213 nM in experiment [3] (setting [9]); 1270 nM in experiment [4] (setting [9]); 170 nM in experiment [5] (Severe acute respiratory syndrome coronavirus 2, Huh-7, read-out: EC90 Mean (SD)). Also, the EC90 in experiment [5] (read-out: Mean EC90 (SD)) turned out to be 150 nM; with SARS-CoV-2 AY.20 Delta (setting [9]), 672 nM; with SARS-CoV-2 Delta (setting [9]), 425 nM; in the experiment with CoV-OC43 (Huh-7, read-out: Mean EC90 (SD)), 490 nM; in the experiment with SARS-CoV-2 WA1 NLuc (Severe acute respiratory syndrome coronavirus 2, A549-ACE2, read-out: Mean EC90 (SD)), 114 nM; in the experiment on SARS-CoV-2 Mu (setting [9]), 195 nM. The EC90 in experiment [6] (setting [9]) was 171 nM; in the experiment with CoV-229E (MRC5, read-out: Mean EC90 (SD)), 410 nM; with SARS-CoV-2 BA.2 Omicron (setting [9]), 668 nM. Further, the Ki at cathepsin S was 445 nM; on cathepsin L, 7400 nM; on cathepsin K it was 289 nM; at cathepsin B it was 1270 nM. For the same compound, the inhibitory activity result on calpain1, on chymotrypsin C, at caspase 3, against cathepsin D, in the experiment with elastase and against caspase-2 was “no inhibitory activity was observed” in each case. In addition, the inhibitory activity result against dipeptidyl peptidase IV and against thrombin was “no inhibitory activity was observed” throughout. Moreover, the IC50 was 141 nM at CoV-229E M^pro, 61 nM against CoV-HKU1 M^pro, 158 nM against CoV-OC43 M^pro and 206 nM against CoV-NL63 M^pro. On SARS-CoV-2 M^pro, this compound returned an alpha factor of 10.4.

Consider `CC(C)C[C@@H](C(=O)N1C[C@]2(C[C@H]1C#N)C(=O)Nc1ccccc12)N(C)C(=O)c1cc2c(F)cc(F)c(F)c2[nH]1` [EDP-235], for which the “effect on viral RNA decline or infectious viral load in nasal samples” value in the experiment on SARS-CoV-2 [7] is on record as “failed to demonstrate the effect on viral RNA decline or infectious viral load in nasal samples”.

On SARS-CoV2 WT M^pro, GC376 registered an IC50 of 20 nM. That is a double-digit nanomolar value.

Broadly, the EC50 is the concentration needed to bring the measured effect to its halfway point. By EC90 is commonly meant the concentration needed for an effect of 90%. What is called Ki is the dissociation constant of the complex between target and ligand, obtained from inhibition or displacement. As a reminder, the IC50 is the point on the concentration scale where inhibition reaches its midpoint. Read a high IC50 as lower potency.
